Measurements reported in PubChem BioAssay AID328 (DTP/NCI, 2004).
Several values for one entry are separate records, joined by “and”; a condition that tells them apart may be missing. Equal values may be shown once. Inconclusive results and toxic doses are left out.

System: BDF1 mice, P388 leukemia ip, median survival T/C
Assay: NCI In Vivo Anticancer Drug Screen. Data for tumor model P388 Leukemia (intraperitoneal) in B6D2F1 (BDF1) mice
Conditions: endpoint: median survival time, higher = longer survival
Summary of the method: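 Antitumour effect was judged in vivo: survival in drug-treated mice, normalised to that of vehicle-dosed controls, gives the reported T/C.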

[1] = dose: 100.0 mg/kg/injection, schedule: Q04DX003 (ip), vehicle: saline
[2] = dose: 200.0 mg/kg/injection, schedule: Q04DX003 (ip), vehicle: saline
[3] = dose: 400.0 mg/kg/injection, schedule: Q04DX003 (ip), vehicle: saline
[4] = dose: 100.0 mg/kg/injection, schedule: Q04DX003 (ip), vehicle: saline with Tween-80
[5] = dose: 200.0 mg/kg/injection, schedule: Q04DX003 (ip), vehicle: saline with Tween-80
[6] = dose: 400.0 mg/kg/injection, schedule: Q04DX003 (ip), vehicle: saline with Tween-80
[7] = dose: 50.0 mg/kg/injection, schedule: Q01DX009 (ip), vehicle: saline with Tween-80
[8] = dose: 100.0 mg/kg/injection, schedule: Q01DX009 (ip), vehicle: saline with Tween-80
[9] = dose: 200.0 mg/kg/injection, schedule: Q01DX009 (ip), vehicle: saline with Tween-80
[10] = dose: 400.0 mg/kg/injection, schedule: Q01DX009 (ip), vehicle: saline with Tween-80
[11] = dose: 12.5 mg/kg/injection, schedule: Q01DX009 (ip), vehicle: saline
[12] = dose: 25.0 mg/kg/injection, schedule: Q01DX009 (ip), vehicle: saline
[13] = dose: 100.0 mg/kg/injection, schedule: Q04DX003 (ip), vehicle: saline sonified
[14] = dose: 200.0 mg/kg/injection, schedule: Q04DX003 (ip), vehicle: saline sonified

CCCCCCCCCC(=O)CCC
T/C [1]: 100 % of control | T/C [2]: 100 % of control | T/C [3]: 104 % of control

CCCCNCCC(SS)c1ccc(Cl)cc1 (stereo not given)
T/C (dose: 50.0 mg/kg/injection, schedule: Q04DX003 (ip), vehicle: saline with Tween-80): 104 % of control | T/C [4]: 100 % of control

CC(=O)OC1CCC2(C)C(CCc3ccoc3)=C(C)C(=O)CC2C1(C)C (stereo not given)
T/C (dose: 10.0 mg/kg/injection, schedule: Q01DX009 (ip), vehicle: saline + alcohol): 105 % of control | T/C (dose: 20.0 mg/kg/injection, schedule: Q01DX009 (ip), vehicle: saline + alcohol): 115 % of control | T/C (dose: 40.0 mg/kg/injection, schedule: Q01DX009 (ip), vehicle: saline + alcohol): 105 % of control

CCC(C(O)c1cccs1)C(O)(C(F)(F)F)C(F)(F)F (stereo not given)
T/C [4]: 95 % of control | T/C [5]: 100 % of control

CNC(=O)c1ccccc1C(O)(c1ccccc1)c1ccccc1
T/C (dose: 100.0 mg/kg/injection, schedule: Q04DX003 (ip), vehicle: Klucel (hydroxypropylcellulose) (HPC)): 113 % of control | T/C (dose: 200.0 mg/kg/injection, schedule: Q04DX003 (ip), vehicle: Klucel (hydroxypropylcellulose) (HPC)): 109 % of control | T/C (dose: 400.0 mg/kg/injection, schedule: Q04DX003 (ip), vehicle: Klucel (hydroxypropylcellulose) (HPC)): 100 % of control

Cc1cc(=O)[nH]c2c1CCCC2
T/C (dose: 37.5 mg/kg/injection, schedule: Q01DX009 (ip), vehicle: saline with Tween-80): 92 % of control | T/C (dose: 75.0 mg/kg/injection, schedule: Q01DX009 (ip), vehicle: saline with Tween-80): 99 % of control and 118 % of control | T/C (dose: 150.0 mg/kg/injection, schedule: Q01DX009 (ip), vehicle: saline with Tween-80): 103 % of control | T/C (dose: 300.0 mg/kg/injection, schedule: Q01DX009 (ip), vehicle: saline with Tween-80): 91 % of control

BrCCN(CCBr)c1ccc2c3c(cccc13)-c1ccccc1-2
T/C (dose: 0.13 mg/kg/injection, schedule: Q01DX009 (ip), vehicle: saline): 107 % of control | T/C (dose: 0.25 mg/kg/injection, schedule: Q01DX009 (ip), vehicle: saline): 92 % of control | T/C (dose: 0.5 mg/kg/injection, schedule: Q01DX009 (ip), vehicle: saline): 111 % of control | T/C (dose: 0.68 mg/kg/injection, schedule: Q01DX009 (ip), vehicle: Klucel (hydroxypropylcellulose) (HPC)): 107 % of control | T/C (dose: 1.0 mg/kg/injection, schedule: Q01DX009 (ip), vehicle: Klucel (hydroxypropylcellulose) (HPC)): 111 % of control | T/C (dose: 1.0 mg/kg/injection, schedule: Q01DX009 (ip), vehicle: saline): 111 % of control | T/C (dose: 3.12 mg/kg/injection, schedule: Q01DX009 (ip), vehicle: Klucel (hydroxypropylcellulose) (HPC)): 170 % of control | T/C (dose: 21.0 mg/kg/injection, schedule: Q01DX009 (ip), vehicle: Klucel (hydroxypropylcellulose) (HPC)): 173 % of control | T/C (dose: 30.0 mg/kg/injection, schedule: Q01DX009 (ip), vehicle: Klucel (hydroxypropylcellulose) (HPC)): 115 % of control | T/C (dose: 45.0 mg/kg/injection, schedule: Q01DX009 (ip), vehicle: Klucel (hydroxypropylcellulose) (HPC)): 220 % of control | T/C (dose: 70.0 mg/kg/injection, schedule: Q01DX009 (ip), vehicle: Klucel (hydroxypropylcellulose) (HPC)): 195 % of control | T/C (dose: 176.0 mg/kg/injection, schedule: Q04DX003 (ip), vehicle: saline with Tween-80): 104 % of control | T/C [6]: 86 % of control

COCCn1c2nc(=O)n(-c3ccccc3)c(=O)c-2nc2c1CCCC2
T/C (dose: 25.0 mg/kg/injection, schedule: Q01DX009 (ip), vehicle: saline with Tween-80): 103 % of control | T/C [7]: 97 % of control and 112 % of control | T/C [8]: 113 % of control and 124 % of control | T/C [9]: 110 % of control

Cc1nc2ccccc2nc1CC(O)(c1ccccc1)c1cccc2ccccc12 (stereo not given)
T/C [7]: 94 % of control | T/C [8]: 95 % of control | T/C [9]: 97 % of control

O=C1Nc2ccc(Br)cc2C1=Nc1cccnc1
T/C [7]: 100 % of control | T/C [8]: 104 % of control | T/C [9]: 111 % of control | T/C [10]: 111 % of control

C/C(Br)=C(/Br)C(=O)O
T/C [7]: 94 % of control | T/C [8]: 97 % of control | T/C [9]: 87 % of control

Cn1c(CC(O)(C(F)(F)Cl)C(F)(F)Cl)cc(=O)n1-c1ccccc1
T/C [4]: 100 % of control | T/C [5]: 100 % of control

CCOC(=S)SCc1nc2ccccc2[nH]1
T/C [1]: 90 % of control | T/C [2]: 107 % of control | T/C [3]: 105 % of control

CCC[As](=O)(O)CCC
T/C [11]: 115 % of control | T/C [12]: 110 % of control | T/C (dose: 33.0 mg/kg/injection, schedule: Q01DX009 (ip), vehicle: saline): 100 % of control | T/C (dose: 75.0 mg/kg/injection, schedule: Q01DX009 (ip), vehicle: saline): 120 % of control

O=C(O)/C(Cc1cnc2ccccc2n1)=N\O
T/C [4]: 95 % of control | T/C [5]: 100 % of control | T/C [6]: 91 % of control

COc1c(O)c(O)c2c3c(c(O)c4c2c1C(=O)C=C4C)C(C)(C)C(C)O3 (stereo not given)
T/C (dose: 50.0 mg/kg/injection, schedule: Q04DX001 (ip), vehicle: saline): 104 % of control | T/C (dose: 100.0 mg/kg/injection, schedule: Q04DX001 (ip), vehicle: saline): 100 % of control | T/C (dose: 200.0 mg/kg/injection, schedule: Q04DX001 (ip), vehicle: saline): 100 % of control

O=c1[nH]c(=O)n(CC(O)c2ccc(Cl)s2)cc1F (stereo not given)
T/C [5]: 103 % of control | T/C [6]: 117 % of control

CC1CC(C)(C)N=C(C(C)CC(C)(C)C)O1 (stereo not given)
T/C (dose: 50.0 mg/kg/injection, schedule: Q04DX003 (ip), vehicle: saline sonified): 90 % of control | T/C [13]: 100 % of control | T/C [14]: 100 % of control

CSc1nc(N)c2c(C(N)=O)cc(=O)[nH]c2n1
T/C (dose: 100.0 mg/kg/injection, schedule: Q04DX002 (ip), vehicle: saline with Tween-80): 101 % of control | T/C (dose: 200.0 mg/kg/injection, schedule: Q04DX002 (ip), vehicle: saline with Tween-80): 90 % of control

CN(C)CCNC(=O)Cc1cc(O)c2c(c1O)C(=O)c1ccccc1C2=O
T/C (dose: 50.0 mg/kg/injection, schedule: Q01DX005 (ip), vehicle: saline): 105 % of control | T/C (dose: 100.0 mg/kg/injection, schedule: Q01DX005 (ip), vehicle: saline): 118 % of control

COC(=O)C(CC(C)C)NC(=O)C(Cc1ccc(Oc2ccc([N+](=O)[O-])cc2[N+](=O)[O-])cc1)NC=O (stereo not given)
T/C (dose: 25.0 mg/kg/injection, schedule: Q04DX003 (ip), vehicle: water): 95 % of control | T/C (dose: 300.0 mg/kg/injection, schedule: Q04DX003 (ip), vehicle: water): 99 % of control | T/C (dose: 400.0 mg/kg/injection, schedule: Q04DX003 (ip), vehicle: water): 96 % of control and 98 % of control and 112 % of control

CN(C)CCCN=C1Nc2ccccc2C(=NCCCN(C)C)Nc2ccccc21
T/C [11]: 104 % of control | T/C (dose: 12.5 mg/kg/injection, schedule: Q04DX003 (ip), vehicle: saline): 100 % of control | T/C [12]: 95 % of control | T/C (dose: 25.0 mg/kg/injection, schedule: Q04DX003 (ip), vehicle: saline): 88 % of control | T/C (dose: 50.0 mg/kg/injection, schedule: Q01DX009 (ip), vehicle: saline): 100 % of control | T/C (dose: 50.0 mg/kg/injection, schedule: Q04DX003 (ip), vehicle: saline): 111 % of control

O=C(O)CC/C(=N/OCc1cc2c(cc1Cl)OCO2)C(=O)O
T/C [13]: 100 % of control | T/C [14]: 100 % of control | T/C (dose: 400.0 mg/kg/injection, schedule: Q04DX003 (ip), vehicle: saline sonified): 109 % of control

Oc1ccc(F)c2cccnc12
T/C (dose: 12.5 mg/kg/injection, schedule: Q01DX010 (ip), vehicle: carboxymethylcellulose (CMC)): 100 % of control | T/C (dose: 25.0 mg/kg/injection, schedule: Q01DX010 (ip), vehicle: carboxymethylcellulose (CMC)): 105 % of control | T/C (dose: 50.0 mg/kg/injection, schedule: Q01DX010 (ip), vehicle: carboxymethylcellulose (CMC)): 100 % of control

COc1cc(/C=N/N2CCCCC2)cc(OC)c1OC
T/C [8]: 100 % of control | T/C [4]: 100 % of control | T/C [9]: 90 % of control | T/C [5]: 100 % of control | T/C [10]: 100 % of control | T/C [6]: 90 % of control

O=C(/C=C/C=C/c1ccccc1)c1ccc(Cl)cc1
T/C [8]: 115 % of control | T/C [4]: 100 % of control | T/C [9]: 115 % of control | T/C [5]: 90 % of control | T/C [10]: 110 % of control | T/C [6]: 109 % of control
